This note sets out measurements from PMC3676432 (Journal of neurochemistry, 2013).

Structures are written as SMILES.

Format in all cases: cell-based
Assay [1] concerns the target mouse muscle nAChR αT254C+L279C (Mus musculus, UniProt P02716+P04756+P04760, C212S/C213S/L299C/T274C). The note with it: 2 min.
Assay [2] concerns the target mouse muscle nAChR αT254C+M278C (Mus musculus, UniProt P02716+P04756+P04760, C212S/C213S/M298C/T274C). The note with it: 2 min.
Assay [3] deals with mouse muscle nAChR αT254C (Mus musculus, UniProt P02716+P04756+P04760, C212S/C213S/T274C). In words: Effect of reducing/oxidizing reagents on ACh-induced current amplitude. The note with it: DTT 10 mM, 2 min; T254C; ACh EC20–50.
Sequence of mouse muscle nAChR αT254C (P04756 21-457 C212S/C213S/T274C): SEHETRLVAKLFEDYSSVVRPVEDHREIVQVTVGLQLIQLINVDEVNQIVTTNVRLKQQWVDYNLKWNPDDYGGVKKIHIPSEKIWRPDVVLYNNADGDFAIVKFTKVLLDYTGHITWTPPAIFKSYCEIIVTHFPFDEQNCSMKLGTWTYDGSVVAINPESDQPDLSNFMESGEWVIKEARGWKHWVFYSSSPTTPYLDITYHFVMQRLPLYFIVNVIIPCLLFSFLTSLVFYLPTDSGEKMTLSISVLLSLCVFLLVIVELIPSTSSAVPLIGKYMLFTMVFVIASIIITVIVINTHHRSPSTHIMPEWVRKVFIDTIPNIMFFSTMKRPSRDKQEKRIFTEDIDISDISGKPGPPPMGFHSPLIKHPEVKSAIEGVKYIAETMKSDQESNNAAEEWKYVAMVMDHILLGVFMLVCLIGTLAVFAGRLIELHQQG
Sequence of mouse muscle nAChR αT254C (P09690 24-501 partner): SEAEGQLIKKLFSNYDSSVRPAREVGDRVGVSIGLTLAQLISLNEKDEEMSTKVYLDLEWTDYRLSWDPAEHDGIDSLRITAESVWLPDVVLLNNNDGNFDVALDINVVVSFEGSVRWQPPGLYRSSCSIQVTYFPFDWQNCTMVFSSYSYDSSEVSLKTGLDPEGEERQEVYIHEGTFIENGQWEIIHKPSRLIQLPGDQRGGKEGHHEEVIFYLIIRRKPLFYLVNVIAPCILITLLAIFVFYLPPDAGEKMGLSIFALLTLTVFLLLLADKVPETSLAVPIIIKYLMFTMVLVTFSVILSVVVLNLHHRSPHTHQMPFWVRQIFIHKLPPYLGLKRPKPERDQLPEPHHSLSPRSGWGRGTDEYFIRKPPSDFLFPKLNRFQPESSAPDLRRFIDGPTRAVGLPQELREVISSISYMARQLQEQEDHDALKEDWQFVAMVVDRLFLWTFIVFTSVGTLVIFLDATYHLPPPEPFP
Sequence of mouse muscle nAChR αT254C (P04760 23-519): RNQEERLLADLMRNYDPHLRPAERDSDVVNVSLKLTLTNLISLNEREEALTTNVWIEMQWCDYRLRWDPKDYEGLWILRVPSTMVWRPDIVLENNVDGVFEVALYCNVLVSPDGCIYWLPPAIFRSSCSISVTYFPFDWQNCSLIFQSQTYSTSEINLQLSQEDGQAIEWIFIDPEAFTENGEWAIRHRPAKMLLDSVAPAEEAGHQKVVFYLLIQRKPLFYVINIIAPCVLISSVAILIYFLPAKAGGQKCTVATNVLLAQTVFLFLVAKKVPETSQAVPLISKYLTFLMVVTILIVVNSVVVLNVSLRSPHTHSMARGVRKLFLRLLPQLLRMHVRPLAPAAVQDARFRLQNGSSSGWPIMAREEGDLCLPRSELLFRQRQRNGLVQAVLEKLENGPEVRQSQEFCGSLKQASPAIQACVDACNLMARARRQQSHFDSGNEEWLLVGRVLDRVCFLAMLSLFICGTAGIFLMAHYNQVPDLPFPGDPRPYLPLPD
Sequence of mouse muscle nAChR αT254C (P02716 25-520): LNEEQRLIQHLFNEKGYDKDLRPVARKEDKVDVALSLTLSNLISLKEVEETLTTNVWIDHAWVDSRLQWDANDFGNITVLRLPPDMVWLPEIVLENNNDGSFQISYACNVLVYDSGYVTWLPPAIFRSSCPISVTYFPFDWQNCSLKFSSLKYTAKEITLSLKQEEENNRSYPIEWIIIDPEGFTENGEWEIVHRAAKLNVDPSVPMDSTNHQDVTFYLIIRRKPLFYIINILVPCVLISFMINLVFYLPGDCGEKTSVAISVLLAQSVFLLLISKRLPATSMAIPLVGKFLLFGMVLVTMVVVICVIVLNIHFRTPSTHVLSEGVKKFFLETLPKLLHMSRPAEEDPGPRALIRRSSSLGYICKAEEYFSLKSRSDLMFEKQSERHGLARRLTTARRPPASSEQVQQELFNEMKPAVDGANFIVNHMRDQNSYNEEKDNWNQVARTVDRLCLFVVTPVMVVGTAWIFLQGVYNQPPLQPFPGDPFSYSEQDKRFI
Assay [4] addresses wild-type mouse muscle nAChR (αC192S-C193S background) (Mus musculus, UniProt P02716+P04756+P04760, C212S/C213S). Described as above. The note with it: DTT 10 mM, 2 min, ACh EC20–50.
Where [5] appears, read: second DTT 10 mM, after Cu:Phen and EGTA.

Sequence of mouse muscle nAChR αT254C+M278C (P04756 21-457 C212S/C213S/T274C/M298C): as the sequence (P04756 21-457 C212S/C213S/T274C) above, with M278C counted along it
Sequence of mouse muscle nAChR αT254C+M278C (P09690 24-501 partner): as the sequence (P09690 24-501 partner) above
Sequence of mouse muscle nAChR αT254C+M278C (P04760 23-519): as the sequence (P04760 23-519) above
Sequence of mouse muscle nAChR αT254C+M278C (P02716 25-520): as the sequence (P02716 25-520) above
Sequence of mouse muscle nAChR αT254C+L279C (P04756 21-457 C212S/C213S/T274C/L299C): as the sequence (P04756 21-457 C212S/C213S/T274C) above, with L279C counted along it
Sequence of mouse muscle nAChR αT254C+L279C (P09690 24-501 partner): as the sequence (P09690 24-501 partner) above
Sequence of mouse muscle nAChR αT254C+L279C (P04760 23-519): as the sequence (P04760 23-519) above
Sequence of mouse muscle nAChR αT254C+L279C (P02716 25-520): as the sequence (P02716 25-520) above
Sequence of wild-type mouse muscle nAChR (αC192S-C193S background) (P04756 21-457 C212S/C213S): as the sequence (P04756 21-457 C212S/C213S/T274C) above, with C254T counted along it
Sequence of wild-type mouse muscle nAChR (αC192S-C193S background) (P09690 24-501 partner): as the sequence (P09690 24-501 partner) above
Sequence of wild-type mouse muscle nAChR (αC192S-C193S background) (P04760 23-519): as the sequence (P04760 23-519) above
Sequence of wild-type mouse muscle nAChR (αC192S-C193S background) (P02716 25-520): as the sequence (P02716 25-520) above

With `O=C(O)CN(CCOCCOCCN(CC(=O)O)CC(=O)O)CC(=O)O` [EGTA, Ethylene glycol tetraacetic acid], the “EGTA effect on ACh-induced current amplitudes” value in assay [1] (EGTA 2 mM, after Cu:Phen) was −9 ± 3%; in assay [2] (EGTA 2 mM, after Cu:Phen), 1 ± 2%.
`O[C@@H](CS)[C@@H](O)CS` (racemic) [DTT, Dithiothreitol]: the “ACh-induced current amplitude after DTT compared to initial current” value in assay [3] and in assay [4] was “not significantly altered” throughout. Moreover, the “decrease of current amplitudes by DTT after Cu:Phen” value in assay [1] (setting [5]) is listed as 47 ± 11%. Besides, the “increase of current amplitudes by DTT after Cu:Phen” value in assay [2] (setting [5]) was 29 ± 1%.
